The target in the assay is X-box-binding protein 1 (Homo sapiens) (UniProt P17861). Nature of the assay: inhibitors of XBP1 reporter signal, dose response, counter-screen, cell-based (AID 504313).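 Further: CHO cells carrying an XBP1 reporter stimulated with tunicamycin; potency is for inhibition of the tunicamycin-induced reporter signal.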 The conditions noted are these: XBP1 reporter cell assay, percent of control.

pIC50: −log10 of the molar value. Activity calls are given as the source filed them. How the calls were made is not given here.

On to `O=C(Nc1ccc(Cl)cc1)Nc1ccc(N2CCCC2)c(S(=O)(=O)Nc2ccccc2Cl)c1`, for which the IC50 entry was “inactive”.

Turning to `OC(CNCC1CCCO1)Cn1c2ccc(Br)cc2c2cc(Br)ccc21` (stereo not given), the IC50 is > 10000 nM (inactive). Regarding `Cc1ccc(-c2nnc(-c3ccc(NC(=O)Cc4cccs4)cc3)o2)cc1`, the IC50 was > 10000 nM (inactive). Take `O=C(CSC1c2ccccc2-c2ccccc21)N/N=C/c1ccccc1O`: the IC50 was > 10000 nM (inactive). The same measure, in the same setting: in the case of `CCOC(=O)c1cc(-c2ccccc2)nc2c1c(C)nn2-c1ccccn1` it was > 10000 nM (inactive); in that of `CCOC(=O)c1ccc(NC(=O)c2nc[nH]c2C(=O)N[C@@H](C)C(=O)OC(C)(C)C)cc1`, “inactive”; in that of `COc1ccc(CC(=O)Nc2cccc(-c3nnc(-c4cccc(C)c4)o3)c2)cc1OC`, “inactive”. With `COc1ccc(-c2nc(NC(=O)Cn3ccc(C(F)(F)F)n3)sc2C)cc1`, the IC50 was > 10000 nM (inactive).

`O=S(=O)(Nc1ccccc1)c1ccc(Oc2ncc(C(F)(F)F)cc2Cl)cc1`: the pIC50 was 5.67. For `O=c1oc2ccccc2c(Cl)c1CN1CCCCC1`, the IC50 entry was “inactive”. Turning to `Nc1ccc(N2CCCCCC2)cc1`, the IC50 was > 10000 nM (inactive). Still for that read-out and setting: for `O=S1(=O)C=C(Sc2nnc(-c3ccccc3)o2)c2ccccc21` the value was “inactive”. Still for that read-out and setting: in the case of `O=c1c(Cl)c(Cl)cnn1-c1ccccc1` it was “inactive”; in that of `CN1C(=O)/C(=C/c2cc(N=Nc3ccccc3)ccc2O)SC1=S`, “inactive”; in that of `O=C1CC(c2ccco2)CC(O)=C1C=Nc1ccccc1-c1ccccc1` (stereo not given), “inactive”.

In the case of `COc1cccc(NC(=O)CSc2nnc(-c3cc(C)n(-c4ccccc4)c3C)o2)c1`, the pIC50 was 6.39. Regarding `COc1ccc(NC(=O)/C(Cl)=C(/Cl)S(=O)Cc2ccccc2Cl)cn1` (stereo not given), the pIC50 is 6.04. As for `O=C(NCCNC(=O)c1cc(OCC(F)(F)F)ccc1OCC(F)(F)F)Nc1cccc(C(F)(F)F)c1`, the IC50 was > 10000 nM (inactive). With `O=C1C(Nc2ccccc2)=C/C(=N/S(=O)(=O)c2cccs2)c2ccccc21`, the pIC50 was 5.93.

As to `CCCCCCCCCCCCCCCC[n+]1cccc2ccccc21`, the IC50 is < 160 nM (inactive). In the case of `O=C(CCl)N(Cc1cccc([N+](=O)[O-])c1)c1cccc(Cl)c1`, the IC50 result was “inactive”. For the compound `C=C(C)COc1ccc(-c2n[nH]c(C)c2Oc2ccccc2OC)c(O)c1`, the IC50 result is “inactive”.

For `O=C(c1ccc(Cl)cc1)N1CCC(O)(CSc2ccc(Cl)cc2Cl)CC1`, the IC50 was > 10000 nM (inactive).

For the compound `COc1ccc(NC(=O)/C(Cl)=C(/Cl)S(=O)Cc2ccc(Cl)cc2)cn1` (stereo not given), the pIC50 was 5.49. With `Cc1cccc(Nc2nc(N)c([N+](=O)[O-])c(N3CC(C)CC(C)C3)n2)c1` (stereo not given), the IC50 result was “inactive”. As to `Cc1ccc(-c2nc(N)sc2-c2ccc(C)cc2)cc1`, the IC50 was > 10000 nM (inactive). As to `CC[C@@H](C)[C@H](NC(=O)OC(C)(C)C)c1nnc(S(=O)(=O)Cc2cc(C)ccc2C)o1`, the pIC50 is 5.42. Consider `Cc1ccc2nc(NC(=O)C3CCN(S(=O)(=O)c4cc([N+](=O)[O-])ccc4Cl)CC3)sc2c1`, for which the IC50 entry is “inactive”.

In the case of `O=C(CCl)N1CCN2C(=O)c3ccccc3C12c1ccc(Cl)cc1` (stereo not given), the IC50 result was “inactive”. As to `Cc1cc(C2=NNC(=NC3CC3)SC2)c(C)n1-c1ccccc1`, the IC50 was < 160 nM (inactive). For the compound `O=C(Nc1ccccc1Cl)/C(Cl)=C(\Cl)S(=O)c1ccccc1` (stereo not given), the pIC50 was 5.62. The same measure, in the same setting: in the case of `Cc1cc(/C=N/n2cnnc2)c(C)n1-c1ccc(OCc2ccc(Cl)cc2Cl)cc1` it was 6.46. As to `CC(C)(C)c1cc(S(=O)(=O)CCc2ccccn2)cc(C(C)(C)C)c1F`, the IC50 result was “inactive”. On to `CC1(C)C[C@H]2C=C(C=O)[C@]3(C=O)C[C@]3(C)[C@H]2C1`, for which the pIC50 was 5.63. Take `COc1cc(N(C(=O)Cc2cccs2)C(C(=O)NC2CCCCC2)c2ccc(C)cc2)ccc1-n1cnnn1` (stereo not given): the IC50 is > 10000 nM (inactive).
